Laboratory results from patent US20180049996A1, “THERAPEUTIC AGENT FOR CHRONIC RESPIRATORY DISEASE AND COMPOSITION FOR INHIBITING CARDIAC FIBROSIS” (NIPPON HYPOX LABORATORIES INCORPORATED, priority 2015, published 2018).

Key:
[1] = system: Myocardial Disorder Induced by Doxorubicin; assay: Histopathologic examination of the hearts (transmission electron microscope), myocardial disorder induced by doxorubicin; type: in vivo, female SD rats; settings: Test group 2: doxorubicin + HTHQ 50 mg/kg; day 7
Method: Doxorubicin is used to produce disease-model animals of cardiomyopathy. The doxorubicin and 2,3,5-trimethylhydroquinone-1-hexyl ether (HTHQ) as the hydroquinone derivative represented by the general formula (1) described above of the present invention were simultaneously administered to female SD rats of 4 week old after birth to examine the effect of the action. The test groups consisted of the control group to which sterile saline was administered; test group 1 to which doxorubicin (13 mg/kg body weight) alone was administered; test group 2 to which doxorubicin (13 mg/kg body weight) and HTHQ (50 mg/kg body weight) were administered in combination; and test group 3 to which doxorubicin (13 mg/kg body weight), HTHQ (50 mg/kg body weight) and recombinant human erythropoietin (400 IU/kg body weight) were administered in combination. […] The test group 3 is used to confirm the presence or absence of the inhibitory effect brought about by combining HTHQ and rHuEPO on myocardial disorder.
Doxorubicin was orally administered in a single dose to the rats in test groups 1 to 3. 2,3,5-trimethylhydroquinone-1-hexyl ether (HTHQ) was orally administered to the rats in test groups 2 and 3 twice in total: 3 days before the administration of doxorubicin and on the day of the administration. […]

[2] = system: Reactive oxygen species (ROS); assay: Reactive oxygen species (ROS) in BAL cell fluid, COPD model; type: in vivo, C57BL/6N mice; settings: HTHQ 10 and 20 mg/kg/day oral; tobacco smoke 10 days + LPS; compared to COPD group
Method: (§1) 6 week old male SPF C57BL/6N mice, 20 to 25 g of body weight, were purchased from CORETEC INC. (South Korea).
The tests were conducted as follows. The mice in the COPD (chronic obstructive pulmonary disease) model group of the test groups were exposed to tobacco smoke for 1 hour per day (8 cigarettes/day) for 10 days and LPS (5 μg/50 μL/mouse) was intranasally administered to the mice on day 8 after the start of the tests. […]
(§2) The mice in the test groups were euthanized 72 hours after the LPS administration and the mice in the normal control group were euthanized on day 11 after the start of the tests by intraperitoneal injection of pentobarbital (Hanrimu pharmaceutical, South Korea) at 50 mg/kg and then the bronchi were excised. […] After preparing slide samples from 100 μL of BAL cell fluid using Cytospin (4° C., 1000 rpm×5 min), the cell numbers of inflammatory cells (neutrophil, macrophages) present in the BAL fluid were counted using a Diff-Quik stain kit.
Reactive oxygen species (ROS) amounts in BAL cell fluid were measured. […] Reactive oxygen species (ROS) amounts within cells were measured at an excitation wavelength of 485 nm and a fluorescence wavelength of 530 nm using a fluorescence plate analyzer (a product from PerkinElmer, Inc.).

[3] = system: Lung Inflammation Induced by Tobacco Smoke; assay: BAL inflammatory cell numbers, lung inflammation induced by tobacco smoke (COPD model); type: in vivo, C57BL/6N mice; settings: HTHQ 10 and 20 mg/kg/day oral; tobacco smoke 10 days + LPS; compared to COPD model group
Method: as §1
The tests were conducted as follows. The mice in the COPD (chronic obstructive pulmonary disease) model group of the test groups were exposed to tobacco smoke for 1 hour per day (8 cigarettes/day) for 10 days and LPS (5 μg/50 μL/mouse) was intranasally administered to the mice on day 8 after the start of the tests. Roflumilast, the positive control substance, was orally administered to the mice in the positive control substance-administered group at 10 mg/kg body weight/day, and then they were exposed to tobacco smoke for 10 days starting from 1 hour after the administration of roflumilast, and LPS (5 μg/50 μL/mouse) was intranasally administered to the mice on day 8 after the start of the tests. […]
as §2

## CCCCCCOc1cc(C)c(O)c(C)c1C [HTHQ, 2,3,5-trimethylhydroquinone-1-hexyl ether]
[1]
  findings in myocardial cells (transmission electron microscope): loss of striations was alleviated
[2]
  amount of reactive oxygen species (ROS) in BAL cell fluid: effectively reduced
[3]
  infiltration of inflammatory cells (neutrophil, macrophages) in BAL fluid: effectively reduced
